Assays:
[1] = target: T1, CE-2 in lysed human breast cancer cells (MCF-7) (Homo sapiens, UniProt O00748); test: CE-2 activity on acetate esters in lysed MCF-7 cells, 1H NMR; type: biochemical; conditions: for k: 5 million lysed MCF-7 cells
T1 construct: endogenous in cells; host or cells: MCF-7 (sonicated lysate)
T1 sequence (O00748 27-559): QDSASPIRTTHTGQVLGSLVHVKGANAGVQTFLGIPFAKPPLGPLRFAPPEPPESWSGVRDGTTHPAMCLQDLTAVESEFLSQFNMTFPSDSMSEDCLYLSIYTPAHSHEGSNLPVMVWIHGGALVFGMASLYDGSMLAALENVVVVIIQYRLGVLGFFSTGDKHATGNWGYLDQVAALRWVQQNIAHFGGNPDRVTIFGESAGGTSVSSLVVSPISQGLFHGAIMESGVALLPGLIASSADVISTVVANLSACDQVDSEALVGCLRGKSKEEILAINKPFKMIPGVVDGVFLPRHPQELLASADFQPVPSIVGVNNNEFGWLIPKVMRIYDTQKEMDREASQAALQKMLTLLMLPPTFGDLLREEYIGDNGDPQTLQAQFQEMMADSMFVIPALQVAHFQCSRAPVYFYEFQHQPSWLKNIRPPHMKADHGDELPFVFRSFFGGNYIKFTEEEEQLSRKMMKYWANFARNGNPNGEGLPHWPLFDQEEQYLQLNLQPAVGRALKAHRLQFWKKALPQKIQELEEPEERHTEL
Protocol: Different classes of short chain esters, fulfilling the requirements for the hyperpolarization technique (stable, soluble, low molecular weight compounds (<400 Da), were evaluated as substrates for carboxyl esterases with the aim to identify esters as similar or better substrates for carboxyl esterases than 1,3-^13C2 ethyl acetoacetate. In most human cell types, including a wide range of cancer cells and lymphocytes, the activity of carboxyl esterase is dominated by the activities of isoforms 1 and 2 (CE-1 and CE-2). To measure exclusively the hydrolysis of carboxyl esterase from the CE-1 isoform, an isolated enzyme from porcine liver was applied. To measure almost exclusively the contribution of carboxyl esterase activity from the CE-2 isoform, human breast cancer cells (MCF-7) were employed. These cells are known from literature to express CE-2 but not to express CE-1 (Byun et al, 2008, Cancer letters 266:238-48). A group of esters was investigated as substrates for CE-1, which contained different structural features. […] Also esters with large alcohol groups and small acid groups were investigated. In this group, the acid part of the molecule was always acetate and different structural properties of the alcohol were investigated. These consisted of esters of un-substituted alcohols (examples ethyl acetate and butyl acetate), esters of branched chain alcohols (examples t-butyl acetate, ethyl 3-acetoxy butanoate and 2-acetoxy propionate), esters of aromatic alcohols (example benzyl acetate), esters of diols (example ethyleneglycol diacetate), esters of triols (example triacetin). Esters of alpha-keto acids were too unstable to be investigated in this assay. Esters of larger alcohols are not water soluble and therefore not relevant substrates for the purpose of the invention. Similarly, a group of esters which contained different structural features was investigated as substrates for CE-2. CE-2 substrates are described in the literature to consist of a small acid group and a larger alcohol group. All included esters were acetate esters (i.e. esters of acetic acid) in the interest of keeping the acid moiety the smallest possible. The acetate esters measured for CE-2 activity were therefore the same as those measured in the second group of possible substrates for CE-1. The CE-2 experiments were performed with lysed breast cancer cells (MCF-7). MCF-7 cells were grown in RPMI medium with 10% FBS and antibiotics. They were at confluence harvested by trypsination and washed once with 5 ml PBS. They were spun down and resuspended in PBS to a concentration of 20 mill. cells/ml. The cells were hereafter sonicated on ice (50% amplitude, 1 min, 3 sec pulse). 250 μl sonicated cell suspension was mixed with 250 μl 400 mM phosphate buffer pH 7.3. […] The substrate was added (50 μl, 60 mM) and the tube turned for mixing before it was inserted into the spectrometer. An initial spectrum was acquired and the sample was hereafter placed at 37° C. for 1 hour in a water bath. The sample was again inserted into the magnet and a second spectrum was recorded. The data was analysed with MNOVA software and measured as percentage conversion of substrate calculated to account for the amount of substrate converted over 60 min. The numbers are given in μmol/hour.

[2] = test system: carboxyl esterase in lysed breast cancer cells (MCF-7); test: Carboxyl esterase activity in cell extract, 1H NMR; type: biochemical, human; conditions: 5 million lysed cells; for Metabolic conversion, Breast cancer cells MCF-7: 37° C.
Protocol: (§1) The hydrolysis of the substrates was investigated in cell extracts. To test substrates without isotope labelling for carboxyl esterase activity in a cellular background, a ^1H NMR assay was applied. Human breast cancer cells (MCF-7) and human prostate cancer cells (PC-3) were grown in RPMI medium with 10% FBS and antibiotics. They were at confluence harvested by trypsination and washed once with 5 ml PBS. They were spun down and resuspended in PBS to a concentration of 20 mill. cells/ml. The cells were hereafter sonicated on ice (50% amplitude, 1 min, 3 sec pulse). Human lymphocytes were purified from whole blood. Whole blood samples were drawn from healthy volunteer into heparinised venous blood collection tubes (Venosafe vacumtubes from Terumo). For each experiment, the blood was purified freshly: Three and a half 10 mL tubes of blood were pooled in each of four 50 mL Leucosep (Greiner) tubes prepared with 15 mL Histopaque 1077 (Sigma). The Leucosep tubes were spun for 15 min at 800× g at 24 C. The plasma was removed and the white blood cells were transferred to a 50 mL falcon tube by decanting and diluted 1:2 in PBS-Mg—Ca for a total volume of 50 mL. The cells were sedimented by centrifugation at 250×g for 60 min. Diluting with trypan blue and counting in hemocytometer determined the total number of lymphocytes before sedimentation. All cells were viable and the total number of cells in each cell batch was approx. 60 million. The lymphocytes were redissolved to a concentration of 20 million cells/ml. The cells were hereafter sonicated on ice (50% amplitude, 1 min, 3 sec pulse).
(§2) 250 μl sonicated cell suspension was mixed with 250 μl 400 mM phosphate buffer pH 7.3. This solution was transferred to a 5 mm NMR tube and warmed on a water bath to 37° C. The substrate was added (50 μl, 60 mM) and the tube turned for mixing before it was inserted into the spectrometer. The data was analyzed with MNOVA software and measured as percentage conversion of substrate calculated to account for the amount of substrate converted over 60 min; numbers are given in μmol/hour.

[3] = test system: carboxyl esterase in lysed lymphocytes (B + T cells); test: Carboxyl esterase activity in cell extract, 1H NMR; type: biochemical, human; conditions: 5 million lysed cells; for Metabolic conversion, Lymphocytes (B + T cells): 37° C.
Protocol: as §1, §2

[4] = test system: carboxyl esterase in lysed prostate cancer cells (PC-3); test: Carboxyl esterase activity in cell extract, 1H NMR; type: biochemical, human; conditions: for Metabolic conversion, Prostate cancer cells PC-3: 37° C.
Protocol: as §1, §2

[5] = acetate vs ethyl ester function

CC(=O)OCc1ccccc1 [Benzyl acetate]
k ([1]; 37° C., 1 hour): 1.05 µmol/min
hydrolysis by CE-2, in words ([1]; lysed MCF-7 cells): hydrolysed particularly fast
hydrolysis by CE-2, in words ([1]; lysed MCF-7 cells, listed as benzyl acetate): the best
Metabolic conversion, Breast cancer cells MCF-7 [2]: 1.05 µmol/h
Metabolic conversion, Lymphocytes (B + T cells) [3]: 0.39 µmol/h
Metabolic conversion, Prostate cancer cells PC-3 ([4]; 5 million lysed cells): 22 µmol/h
metabolic conversion in prostate cancer cells compared to lymphocytes ([4]; cell number basis, positive contrast): ~60 times

CC(=O)OCC(COC(C)=O)OC(C)=O [Tri-acetin]
k ([1]; 37° C., 1 hour): 0.27 µmol/min
hydrolysis by CE-2, in words ([1]; lysed MCF-7 cells): hydrolysed to a similar extent
Metabolic conversion, Breast cancer cells MCF-7 [2]: 0.27 µmol/h
Metabolic conversion, Lymphocytes (B + T cells) [3]: 0.18 µmol/h
Metabolic conversion, Prostate cancer cells PC-3 ([4]; 5 million lysed cells): 1.8 µmol/h

CCOC(=O)CC(C)OC(C)=O (centres unmarked) [ethyl 3-acetoxy butanoate]
k (μmol/min), acetate ester ([1]; hydrolysis of the acetate ester function, lysed MCF-7 cells, 37° C., 1 hour): 0.18 µmol/min
hydrolysis by CE-2, in words ([1]; lysed MCF-7 cells): hydrolysed to a similar extent
Breast cancer cells MCF-7 Ratio acetate/ethyl [2, 5]: 2
Lymphocytes (B + T cells) Ratio acetate/ethyl [3, 5]: 1
Prostate cancer cells PC-3 Ratio acetate/ethyl ([4]; 5 million lysed cells, acetate vs ethyl ester function): 9
